Assay [1] has as its system PC3/PSC27 xenograft tumors. The assay is described as follows: PC3/PSC27 xenograft tumor terminal volume in NOD/SCID mice. The assay is classed as in vivo. The settings on record: for tumor volume, drug used alone: chemotherapeutic drug alone; for tumor volume, drug administered together with PCC1: chemotherapeutic drug combined with PCC1, end of 8th week. The source says: Every two weeks was a dosing cycle, and MIT (mitoxantrone) was intraperitoneally administered to the mice on the first day of the 3rd/5th/7th weeks. From the first day of the 5th week, the mice were intraperitoneally administrated with PCC1, once a week. After the 8-week course of treatment, the mice were dissected for pathological identification and expression analysis.
Chemotherapeutic drug MIT alone or together with anti-senescence drug PCC1 was used to administer mice, and after the 8th week, the tumor size of each group was compared and analyzed.
All experimental mouse experiments were carried out in strict accordance with the relevant regulations of the Institutional Animal Care and Use Committee (IACUC), Shanghai Institutes for Biological Sciences, Chinese Academy of Sciences. Immunodeficient mice (NOD-SCID mice, ICR) (body weight about 25 g) aged 6-8 weeks were used for animal experiments related to the present patent. Stromal cells PSC27 and epithelial cells PC3 were mixed at a predetermined ratio of 1:4, and each graft contained 1.25×10^6 cells for tissue remodeling. The xenograft tumors were implanted into mice by subcutaneous transplantation, and the animals were euthanized 8 weeks after the end of the transplantation surgery. Tumor volume was calculated according to the following formula: V=(π/6)×[…] (V, volume; l, length; w, width).
(§1) In a preclinical treatment trial, subcutaneously transplanted mice were fed with a standard experimental diet, after 2 weeks chemotherapy drugs mitoxantrone (MIT, dose: 0.2 mg/kg) and/or procyanidin C1 (PCC1) (500 μl, dose: 10 mg/kg) via intraperitoneal administration. The time points were: the former was administrated on the first day of the 3rd, 5th and 7th weeks, and the latter was administrated on the first day of the 5th and 7th weeks. A total of 3 cycles of MIT administration were carried out throughout the course of treatment, and each cycle lasted for 2 weeks. After the course of treatment, mouse tumors were harvested for volume measurement and histological analysis. Each mouse cumulatively received 0.6 mg/kg body weight of MIT and […] body weight of PCC1. In order to cause systemic expression of SASP factor induced by chemotherapy, MIT was administered to mice through […] according to the above steps and sequence, but the dose was reduced to 0.1 mg/kg body weight/each time (the cumulative dose of MIT received in the whole course of treatment was 0.3 mg/kg body weight) to reduce drug-related toxicity. The chemotherapy experiment ended at the end of the 8th week, and the mice were dissected immediately after sacrifice, and the xenograft tumors were collected and used for pathological system analysis.

The subject of assay [2] is senescent cells in tumor tissue. Briefly: SA-β-Gal staining of tumor tissue in PC3/PSC27 tumor-bearing mice. The assay is classed as in vivo. Particulars: MIT alone. The protocol:
Representative pictures after SA-β-Gal staining. Scale bar, 100 μm.
A P>0.05; **, P<0.01; ***, P<0.001.
as §1, with “The chemotherapy experiment ended at the end of the 8th week, and the mice were dissected immediately after sacrifice, and the xenograft tumors were collected and used for pathological system analysis.” left out

Assay [3] has as its system SASP factors. Briefly: LCM and qRT-PCR of SASP factors in mouse lesions. Format: in vivo, mice. The settings on record: MIT, mainly in stromal cells. The protocol: The stromal cells and cancer cells were specifically separated by LCM technology, total RNA was prepared and used for SASP expression detection. A P>0.05; *, P<0.05; **, P<0.01; ***, P<0.001.
as §1, with “The chemotherapy experiment ended at the end of the 8th week, and the mice were dissected immediately after sacrifice, and the xenograft tumors were collected and used for pathological system analysis.” left out

The test system of assay [4] is cancer cells in the lesion. Briefly: DNA damage and apoptosis in tumor lesions (LCM, caspase 3 cleavage IHC). Format: in vivo, mice. The settings on record: single agent vs placebo, 7 days after first PCC1 administration. The source says: The signals of Caspase 3 cleaved […] in the lesion of each group of mice were in sharp contrast. Scale bar, 200 μm.
To investigate mechanisms directly supporting this senescence-associated pattern with expression and reversal of SASP in MIT-administered mice, we dissected tumors in animals treated with both drugs 7 days after the first PCC1 administration, and the time point of 7 days after administration was selected mainly because drug-resistant clones had not yet formed in cancer cells in the lesion at this time. […] As supporting evidence, when PCC1 was applied during treatment, caspase 3 cleavage activity was increased, which was a typical hallmark of apoptosis (FIG. 29).

The test system of assay [5] is HUVECs. Particulars: cited from earlier work.
The test system of assay [6] is senescent human preadipocytes. Particulars: cited from earlier work.
The subject of assay [7] is IMR90 fetal lung fibroblast-like cell lines. The settings on record: culture-adapted; cited from earlier work.
The subject of assay [8] is senescent primary human lung fibroblasts. The settings on record: cited from earlier work.
The test system of assay [9] is senescent PSC27 cells. The assay is described as follows: Caspase 3/7 activity / drug-induced apoptosis in senescent cells. Particulars: QVD-OPh, 50 μM PCC1. Format: cell-based, human. As for the experimental part:
PSC27 cells gradually entered the senescent stage after being treated with BLEO for 12 hours under culture conditions. 50 μM PCC1 was added to the medium of senescent cells starting from day 7, NucLight Rapid Red reagent was used to label the cells, and caspase 3/7 reagent (IncuCyte) was used for apoptosis detection. Caspase 3/7 activity was detected every 4 hours (n=3).
Statistical differences are obtained by two-way ANOVA (Turkey' test).
PSC27 cells were plated in a 96-well dish, and the cells were induced to senescence under the treatment of 50 μg/mL BLEO. PCC1 and ABT263 were added at concentrations of 50 μM and 1.0 μM, respectively. Cell culture medium was supplemented with Incucyte Nuclight fast Red Reagent (Essen Bioscience) and Incucyte C-3/7 Apoptosis Reagent (Essen Bioscience). Representative field of view was selected to take pictures.

Assay [10] concerns PSC27 cells. The assay is described as follows: Bleomycin-induced senescence of PSC27 stromal cells (SA-β-Gal, BrdU, DDR foci staining). The assay is classed as cell-based, human. The protocol: The primary normal human prostate stromal cell line PSC27 (obtained from Fred Hutchinson Cancer Research Center, USA) was cultured in an incubator at 37° C. and 5% CO2, and proliferated and passaged in PSCC complete culture medium.
To cause cell damage, 50 μg/mL bleomycin (BLEO) was added to the culture medium when PSC27 cells grew to 80% (abbreviated as […]). After 12 hours of drug treatment, the cells were simply washed 3 times with PBS, left in the culture medium for 7-10 days, and then the subsequent experiments were performed.
For immunofluorescent staining, target cells were preseeded on coverslips for at least 24 h after culture in dishes. After a brief wash, the cells were fixed with 4% paraformaldehyde in PBS for 8 min and blocked with 5% normal goat serum (NGS, Thermo Fisher) for 30 min. Mouse monoclonal antibody-anti-phospho-Histone H2A.X (Ser139) (clone JBW301, Millipore) and mouse monoclonal antibody-anti-BrdU (Cat# 347580, BD Biosciences), and secondary antibody Alexa Fluor® 488 (or 594)-Eurolink's F(ab')2 were sequentially added to the slides coated with the fixed cells. Nuclei were counterstained with 2 μg/m DAPI. The most representative image was selected from the three observation fields for data analysis and result display. FV1000 laser scanning confocal microscope (Olympus) was used to acquire confocal fluorescence images of cells.
Senescence-associated (3-galactosidase (SA-β-Gal) staining was performed following a previously reported procedure (Debacq-Chainiaux et al., 2009). Briefly, cells in culture dishes were washed with PBS and fixed at room temperature. Cells were fixed in 2% formaldehyde and 0.2% glutaraldehyde for 3 minutes. SA-β-Gal was used for staining with freshly prepared staining solution overnight at 37° C. Images were taken on the next day and the percentage of positive cells per unit area was calculated.

The text below walks through data of patent US12721832B2, “Anti-senescence plant polyphenol drug downregulating senescence-related secretory phenotype and use thereof” (BYHEALTH CO., LTD., priority 2021, dated 2026).

In the case of `CC(=O)O[C@@]12CO[C@@H]1C[C@H](O)[C@@]1(C)C(=O)[C@H](O)C3=C(C)[C@@H](OC(=O)[C@H](O)[C@@H](NC(=O)OC(C)(C)C)c4ccccc4)C[C@@](O)([C@@H](OC(=O)c4ccccc4)[C@H]21)C3(C)C` [DOC, docetaxel], the “tumor volume, drug used alone” value in [1] (end of 8th week) is reported as “could reduce the tumor volume”. The “tumor volume, drug administered together with PCC1” value (“tumor volume … with PCC1” below) in assay [1] is reported as “no further tumor shrinkage”.
`COc1cccc2c1C(=O)c1c(O)c3c(c(O)c1C2=O)C[C@@](O)(C(=O)CO)C[C@@H]3O[C@H]1C[C@H](N)[C@H](O)[C@H](C)O1` [DOX, doxorubicin]: the “tumor volume … with PCC1” value in assay [1] was “could roughly repeat the significant effect”.
Turning to `O=C1c2c(O)ccc(O)c2C(=O)c2c(NCCNCCO)ccc(NCCNCCO)c21` [MIT, mitoxantrone, reference compound], the “reduction in tumor size compared to placebo” value in assay [1] (single agent, i.p., end of 8th week) was determined as 44.0%. In addition, in assay [2], the “senescent cells in tumor tissue” value is given as “induced the appearance of a large number of senescent cells”. In addition, the “expression of SASP factors (IL6, CXCL8, SPINK1, WNT16B, GM-CSF, MMP3, IL1α) and p16INK4A in lesions” value in assay [3] was “significantly elevated”. Moreover, the “degree of DNA damage and apoptosis” value in [4] was “significant increase”.
In the case of `CC1(C)CCC(c2ccc(Cl)cc2)=C(CN2CCN(c3ccc(C(=O)NS(=O)(=O)c4ccc(N[C@H](CCN5CCOCC5)CSc5ccccc5)c(S(=O)(=O)C(F)(F)F)c4)cc3)CC2)C1` [Navitoclax], the “ability to target senescent cells” value was “able to target” in assay [5]; “not” in [6]; “can target and kill senescent cells” in [7]; “less effective” in assay [8].
`CC(C)[C@H](NC(=O)c1ccc2ccccc2n1)C(=O)N[C@@H](CC(=O)O)C(=O)COc1c(F)cccc1F` [QVD, reference compound]: the “effect of pan-caspase inhibitor on senolytic activity of PCC1” value in [9] is on record as “could prevent the killing of senescent cells by PCC1”.
As for `CC[C@]1(O)C[C@H]2CN(CCc3c([nH]c4ccccc34)[C@@](C(=O)OC)(c3cc4c(cc3OC)N(C=O)[C@H]3[C@@](O)(C(=O)OC)[C@H](OC(C)=O)[C@]5(CC)C=CCN6CC[C@]43[C@@H]65)C2)C1` [VIN, vincristine], in assay [1] (end of 8th week), the “tumor volume, drug used alone” value was “could reduce the tumor volume”. In addition, the “tumor volume … with PCC1” value in assay [1] is given as “no further tumor shrinkage”.
For bleomycin, the “positive rate of SA-β-Gal staining” value in assay [10] (PSC27, 50 μg/mL BLEO 12 h, 7-10 days later, vs CTRL) was “significant increase”. Also, in [10] (PSC27, BLEO treated vs CTRL), the BrdU incorporation rate entry was “greatly reduced” and the “DNA damage repair foci (DDR foci)” value is listed as “significantly increased”.
